Assay results from PubChem BioAssay AID248 (DTP/NCI, 2004).
Where “and” joins values, the source holds several entries; their conditions need not be identical. Equal entries are not always repeated. Inconclusive results and toxic doses are left out. No stated cut-off is given here; in the data, active means T/C of 150% or more; inactive means T/C below 125%.

Test system: L1210 leukemia ip in BDF1 mice, survival T/C
Test: NCI In Vivo Anticancer Drug Screen. Data for tumor model L1210 Leukemia (intraperitoneal) in B6D2F1 (BDF1) mice
Conditions: endpoint: mean survival time, higher = longer survival
Procedure, shortened: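 Antitumor effect is assessed in tumor-bearing animals. Survival in the compound arm is compared with a vehicle-dosed control arm and expressed as their quotient.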

[1] = dose: 100.0 mg/kg/injection, schedule: Q01DX009 (ip), vehicle: Klucel (hydroxypropylcellulose) (HPC)
[2] = dose: 100.0 mg/kg/injection, schedule: Q04DX003 (ip), vehicle: Klucel (hydroxypropylcellulose) (HPC)
[3] = dose: 200.0 mg/kg/injection, schedule: Q04DX003 (ip), vehicle: Klucel (hydroxypropylcellulose) (HPC)
[4] = dose: 400.0 mg/kg/injection, schedule: Q04DX003 (ip), vehicle: Klucel (hydroxypropylcellulose) (HPC)
[5] = dose: 100.0 mg/kg/injection, schedule: Q01DX001 (ip), vehicle: saline with Tween-80
[6] = dose: 100.0 mg/kg/injection, schedule: Q04DX002 (ip), vehicle: saline with Tween-80
[7] = dose: 100.0 mg/kg/injection, schedule: Q04DX003 (ip), vehicle: saline with Tween-80
[8] = dose: 200.0 mg/kg/injection, schedule: Q01DX001 (ip), vehicle: saline with Tween-80
[9] = dose: 200.0 mg/kg/injection, schedule: Q04DX002 (ip), vehicle: saline with Tween-80
[10] = dose: 400.0 mg/kg/injection, schedule: Q01DX001 (ip), vehicle: saline with Tween-80
[11] = dose: 400.0 mg/kg/injection, schedule: Q04DX002 (ip), vehicle: saline with Tween-80
[12] = dose: 100.0 mg/kg/injection, schedule: Q01DX009 (ip), vehicle: saline
[13] = dose: 200.0 mg/kg/injection, schedule: Q01DX009 (ip), vehicle: saline
[14] = dose: 200.0 mg/kg/injection, schedule: Q01DX009 (ip), vehicle: Klucel (hydroxypropylcellulose) (HPC)
[15] = dose: 100.0 mg/kg/injection, schedule: Q04DX003 (ip), vehicle: saline
[16] = dose: 200.0 mg/kg/injection, schedule: Q04DX003 (ip), vehicle: saline
[17] = dose: 25.0 mg/kg/injection, schedule: Q04DX003 (ip), vehicle: saline
[18] = dose: 50.0 mg/kg/injection, schedule: Q04DX003 (ip), vehicle: saline
[19] = dose: 50.0 mg/kg/injection, schedule: Q01DX009 (ip), vehicle: saline

Measured: T/C

O=C(O)C1CCC2CCCCC2[N-]1.O=C(O)C1CCC2CCCCC2[N-]1.[Zn+2] (stereo not given)
inactive: dose: 25.0 mg/kg/injection, schedule: Q01DX009 (ip), vehicle: Klucel (hydroxypropylcellulose) (HPC) 92 % of control | dose: 50.0 mg/kg/injection, schedule: Q01DX009 (ip), vehicle: Klucel (hydroxypropylcellulose) (HPC) 87 % of control | [1] 86 % of control | [2] 94 % of control | [3] 89 % of control | [4] 89 % of control

COc1ccc(-c2sc(/N=C/c3ccc(N(C)CCC#N)cc3)c(C#N)c2C)cc1OC
inactive: [5] 100 % of control | [6] 103 % of control and 118 % of control | [7] 102 % of control and 91 % of control | [8] 91 % of control | [9] 93 % of control and 96 % of control | dose: 200.0 mg/kg/injection, schedule: Q04DX003 (ip), vehicle: saline with Tween-80 95 % of control and 98 % of control | [10] 100 % of control | [11] 104 % of control and 106 % of control | dose: 400.0 mg/kg/injection, schedule: Q04DX003 (ip), vehicle: saline with Tween-80 102 % of control and 91 % of control

O=c1ccc(=O)n(CCc2ccccn2)[nH]1
inactive: dose: 50.0 mg/kg/injection, schedule: Q01DX001 (ip), vehicle: saline 97 % of control | dose: 100.0 mg/kg/injection, schedule: Q01DX001 (ip), vehicle: saline 97 % of control | dose: 200.0 mg/kg/injection, schedule: Q01DX001 (ip), vehicle: saline 94 % of control | dose: 400.0 mg/kg/injection, schedule: Q01DX001 (ip), vehicle: saline 97 % of control

CC(C)O/N=C(/N)N=C(N)N
inactive: dose: 100.0 mg/kg/injection, schedule: Q01DX001 (ip), vehicle: other 98 % of control | dose: 200.0 mg/kg/injection, schedule: Q01DX001 (ip), vehicle: other 106 % of control

COP1(=O)OCC2OC(n3cnc4c(N)ncnc43)C(O)C2O1 (stereo not given)
inactive: dose: 100.0 mg/kg/injection, schedule: Q01DX005 (ip), vehicle: saline 95 % of control and 103 % of control | [12] 89 % of control | dose: 200.0 mg/kg/injection, schedule: Q01DX005 (ip), vehicle: saline 89 % of control and 92 % of control | [13] 92 % of control | dose: 400.0 mg/kg/injection, schedule: Q01DX005 (ip), vehicle: saline 92 % of control | dose: 400.0 mg/kg/injection, schedule: Q01DX009 (ip), vehicle: saline 98 % of control | dose: 600.0 mg/kg/injection, schedule: Q01DX005 (ip), vehicle: saline 101 % of control

CCCCCCCCCCCCCCCCCC(O)CCCCCCCCCCCCCCCCC
inactive: dose: 100.0 mg/kg/injection, schedule: Q04DX003 (ip), vehicle: acetone 94 % of control | dose: 200.0 mg/kg/injection, schedule: Q04DX003 (ip), vehicle: acetone 96 % of control | dose: 400.0 mg/kg/injection, schedule: Q04DX003 (ip), vehicle: acetone 86 % of control

CC(C)C(NC(=O)c1ccccc1)C(=O)O (stereo not given)
inactive: [1] 92 % of control | [2] 96 % of control | [14] 98 % of control | [3] 113 % of control | dose: 400.0 mg/kg/injection, schedule: Q01DX009 (ip), vehicle: Klucel (hydroxypropylcellulose) (HPC) 96 % of control | [4] 100 % of control

COc1cc(OC)c(NC(=O)CCl)cc1Cl
inactive: [1] 104 % of control | [14] 98 % of control

S=c1[nH]nc(NC2CCCCC2)s1
inactive: dose: 100.0 mg/kg/injection, schedule: Q01DX009 (ip), vehicle: other 91 % of control | [15] 88 % of control | [16] 91 % of control | dose: 400.0 mg/kg/injection, schedule: Q04DX003 (ip), vehicle: saline 86 % of control

O=C(Nc1ccccc1C(F)(F)F)OCCOc1ccccc1Cl
inactive: [2] 92 % of control | [3] 92 % of control | [4] 92 % of control

CCCCc1c(F)cccc1C(=O)O
inactive: dose: 12.5 mg/kg/injection, schedule: Q04DX003 (ip), vehicle: saline 101 % of control | [17] 108 % of control | [18] 87 % of control

Cc1ccc(NC(=O)N(CCCl)N=O)c(NC(=O)N(CCCl)N=O)c1
inactive: dose: 30.0 mg/kg/injection, schedule: Q01DX001 (ip), vehicle: carboxymethylcellulose (CMC) 117 % of control | dose: 33.0 mg/kg/injection, schedule: Q01DX001 (ip), vehicle: carboxymethylcellulose (CMC) 107 % of control | dose: 33.0 mg/kg/injection, schedule: Q01DX009 (ip), vehicle: carboxymethylcellulose (CMC) 108 % of control | dose: 50.0 mg/kg/injection, schedule: Q01DX009 (ip), vehicle: carboxymethylcellulose (CMC) 88 % of control | dose: 75.0 mg/kg/injection, schedule: Q01DX001 (ip), vehicle: carboxymethylcellulose (CMC) 113 % of control | dose: 112.0 mg/kg/injection, schedule: Q01DX001 (ip), vehicle: carboxymethylcellulose (CMC) 96 % of control

Cc1ccc(Cl)cc1NC(=O)Nc1ccccc1F
inactive: dose: 25.0 mg/kg/injection, schedule: Q04DX003 (ip), vehicle: saline with Tween-80 94 % of control | dose: 50.0 mg/kg/injection, schedule: Q04DX003 (ip), vehicle: saline with Tween-80 86 % of control and 91 % of control | [5] 92 % of control | dose: 100.0 mg/kg/injection, schedule: Q01DX009 (ip), vehicle: saline with Tween-80 103 % of control and 105 % of control | [6] 98 % of control and 92 % of control | [7] 104 % of control and 90 % of control | [8] 92 % of control | dose: 200.0 mg/kg/injection, schedule: Q01DX009 (ip), vehicle: saline with Tween-80 98 % of control and 90 % of control | [9] 95 % of control and 92 % of control | [10] 89 % of control | dose: 400.0 mg/kg/injection, schedule: Q01DX009 (ip), vehicle: saline with Tween-80 94 % of control and 92 % of control | [11] 90 % of control and 92 % of control

O=[N+]([O-])c1cccc(OCCCCBr)c1
inactive: dose: 100.0 mg/kg/injection, schedule: Q04DX003 (ip), vehicle: other 97 % of control | dose: 200.0 mg/kg/injection, schedule: Q04DX003 (ip), vehicle: other 110 % of control | dose: 400.0 mg/kg/injection, schedule: Q04DX003 (ip), vehicle: other 102 % of control

Cc1cc2nc3ccc(=[N+](C)C)cc-3sc2cc1N
inactive: dose: 3.12 mg/kg/injection, schedule: Q01DX009 (ip), vehicle: saline 94 % of control | dose: 6.25 mg/kg/injection, schedule: Q01DX009 (ip), vehicle: saline 100 % of control | dose: 12.5 mg/kg/injection, schedule: Q01DX009 (ip), vehicle: saline 117 % of control | dose: 25.0 mg/kg/injection, schedule: Q01DX009 (ip), vehicle: saline 101 % of control | [17] 98 % of control | [19] 100 % of control | [18] 106 % of control

CCOC(=O)c1cnc2ccccn2c1=O
inactive: [19] 96 % of control | [5] 92 % of control | [12] 93 % of control | [15] 92 % of control | [8] 94 % of control | [13] 101 % of control | [16] 94 % of control

CC1(C(=O)c2ccccc2)CN(C(C)(C)C)C1c1ccccc1 (stereo not given)
inactive: dose: 50.0 mg/kg/injection, schedule: Q01DX001 (ip), vehicle: Klucel (hydroxypropylcellulose) (HPC) 97 % of control | dose: 100.0 mg/kg/injection, schedule: Q01DX001 (ip), vehicle: Klucel (hydroxypropylcellulose) (HPC) 95 % of control | dose: 200.0 mg/kg/injection, schedule: Q01DX001 (ip), vehicle: Klucel (hydroxypropylcellulose) (HPC) 94 % of control

CCCC[P+](CC(C)(C)c1ccc(C)cc1)(c1ccccc1)c1ccccc1
inactive: dose: 1.56 mg/kg/injection, schedule: Q04DX002 (ip), vehicle: saline 96 % of control | dose: 3.13 mg/kg/injection, schedule: Q04DX002 (ip), vehicle: saline 104 % of control | dose: 6.25 mg/kg/injection, schedule: Q04DX002 (ip), vehicle: saline 100 % of control | dose: 12.5 mg/kg/injection, schedule: Q04DX002 (ip), vehicle: saline 96 % of control | [6] 103 % of control

CCOC(=S)SCC#CCSC(=S)OCC
inactive: dose: 100.0 mg/kg/injection, schedule: Q04DX002 (sc), vehicle: olive oil, sesame oil, peanut oil 104 % of control | dose: 200.0 mg/kg/injection, schedule: Q04DX002 (sc), vehicle: olive oil, sesame oil, peanut oil 114 % of control | dose: 400.0 mg/kg/injection, schedule: Q04DX002 (sc), vehicle: olive oil, sesame oil, peanut oil 96 % of control
